Results as given in US20160318987A1 (MEDIMMUNE LIMITED, priority 2013, published 2016).
*1 amine or outer side, *2 acyl side, *3 side chain or, on linkers, in order; H or OH if unused. Where a SMILES comes first, the peptide text is derived from it. Side-chain parts run from the residue outwards. [ ]: non-standard residue; d: D form. The star is where a group is joined. X1 = CC(C)(c1ccccc1)[C@H](N[*:1])C(=O)[*:2]; γGlu = O=C(O)[C@H](CCC(=O)[*:2])N[*:1]; Palmitoyl = CCCCCCCCCCCCCCCC(=O)*; αMeF = C[C@](N)(Cc1ccccc1)C(=O)O; Aib = CC(C)(N)C(=O)O

Key:
Assay type in all cases: cell-based
Details in all cases: n = 2
hGluc-R = target: T1, hGluc-R (Homo sapiens, UniProt P47871); test: cAMP functional assay, cells expressing human glucagon receptor (primary assay)
T1 construct: expressed in transfected cells
T1 sequence (P47871 26-477): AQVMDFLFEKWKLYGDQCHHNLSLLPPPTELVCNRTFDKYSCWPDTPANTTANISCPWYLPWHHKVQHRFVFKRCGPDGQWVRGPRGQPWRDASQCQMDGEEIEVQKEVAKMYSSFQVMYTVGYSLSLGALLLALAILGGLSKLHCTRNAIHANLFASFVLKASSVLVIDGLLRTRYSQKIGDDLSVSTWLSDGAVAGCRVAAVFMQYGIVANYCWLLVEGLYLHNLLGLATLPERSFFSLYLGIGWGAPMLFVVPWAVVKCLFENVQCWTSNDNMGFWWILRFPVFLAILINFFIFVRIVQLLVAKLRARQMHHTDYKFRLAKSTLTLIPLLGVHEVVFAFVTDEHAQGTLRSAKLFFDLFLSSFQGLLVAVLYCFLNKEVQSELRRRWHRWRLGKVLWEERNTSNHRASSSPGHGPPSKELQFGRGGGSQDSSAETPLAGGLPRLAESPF

hGLP-1R = target: T2, hGLP-1R (Homo sapiens, UniProt P43220); test: cAMP functional assay, cells expressing human GLP-1 receptor (primary assay)
T2 construct: expressed in transfected cells
T2 sequence (P43220 24-463): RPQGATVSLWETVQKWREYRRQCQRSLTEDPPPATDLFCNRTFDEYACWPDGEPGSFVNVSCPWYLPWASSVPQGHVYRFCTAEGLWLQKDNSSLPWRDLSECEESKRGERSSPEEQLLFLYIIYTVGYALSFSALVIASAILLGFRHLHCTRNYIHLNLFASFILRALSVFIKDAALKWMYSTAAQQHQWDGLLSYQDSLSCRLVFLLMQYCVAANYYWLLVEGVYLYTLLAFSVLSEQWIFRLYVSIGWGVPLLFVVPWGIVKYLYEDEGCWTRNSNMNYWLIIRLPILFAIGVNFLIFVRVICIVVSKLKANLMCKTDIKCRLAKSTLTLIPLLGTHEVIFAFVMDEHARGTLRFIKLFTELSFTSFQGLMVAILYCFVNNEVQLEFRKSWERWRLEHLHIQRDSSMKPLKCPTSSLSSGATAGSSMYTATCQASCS

hGIP-R = target: T3, hGIP-R (Homo sapiens, UniProt P48546); test: cAMP functional assay, cells expressing human GIP receptor (primary assay)
T3 construct: expressed in transfected cells
T3 sequence (P48546 22-466): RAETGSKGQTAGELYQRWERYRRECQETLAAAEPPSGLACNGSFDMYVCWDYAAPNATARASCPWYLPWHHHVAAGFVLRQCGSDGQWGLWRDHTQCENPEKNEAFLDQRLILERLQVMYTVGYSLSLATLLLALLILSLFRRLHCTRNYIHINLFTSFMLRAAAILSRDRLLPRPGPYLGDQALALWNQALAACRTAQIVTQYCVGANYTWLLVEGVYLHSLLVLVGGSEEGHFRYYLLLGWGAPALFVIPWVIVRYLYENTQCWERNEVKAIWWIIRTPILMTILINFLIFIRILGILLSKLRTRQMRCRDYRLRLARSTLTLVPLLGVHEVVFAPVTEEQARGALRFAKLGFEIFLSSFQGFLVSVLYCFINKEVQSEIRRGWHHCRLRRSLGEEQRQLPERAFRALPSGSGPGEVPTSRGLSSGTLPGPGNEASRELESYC

EC50 (hGluc-R)	EC50 (hGLP-1R)	EC50 (hGIP-R)	Compound
82.9 nM	0.0238 nM	82.9 nM	CC[C@H](C)[C@H](NC(=O)[C@](C)(Cc1ccccc1)NC(=O)[C@H](CCC(=O)O)NC(=O)[C@H](CCCCN)NC(=O)[C@H](C)NC(=O)[C@H](C)NC(=O)[C@H](CCC(N)=O)NC(=O)CNC(=O)[C@H](CCC(=O)O)NC(=O)[C@H](CC(C)C)NC(=O)[C@](C)(Cc1ccccc1)NC(=O)[C@H](CO)NC(=O)[C@H](CO)NC(=O)[C@@H](NC(=O)[C@H](CC(=O)O)NC(=O)[C@H](CO)NC(=O)[C@@H](NC(=O)[C@](C)(Cc1ccccc1)NC(=O)[C@H](CO)NC(=O)CNC(=O)[C@H](CCC(=O)O)NC(=O)C(C)(C)NC(=O)[C@@H](N)Cc1c[nH]cn1)[C@@H](C)O)C(C)C)C(=O)N[C@@H](C)C(=O)N[C@@](C)(Cc1ccccc1)C(=O)N[C@@H](CC(C)C)C(=O)N[C@H](C(=O)N[C@@H](CCCCN)C(=O)NCC(=O)NCC(=O)N[C@@H](CO)C(=O)N[C@@H](CO)C(=O)NCC(=O)N[C@@H](CO)C(=O)N[C@@H](CO)C(=O)NCC(=O)N[C@@H](CO)C(=O)N[C@@H](CO)C(=O)NCC(=O)N[C@@H](CCCCN)C(N)=O)C(C)C [SEQ ID NO: 48, H-(Aib)^2-EG-(S)^5-(α-MeF)^6-TSDV^10 SS-(α-MeF)^13-LE^15 GQAAK^20 E-(α-MeF)^22-IA-(α-MeF)^25 LVKG-(G)^30-(SSG)3-K] (H-H[Aib]EGS[αMeF]TSDVSS[αMeF]LEGQAAKE[αMeF]IA[αMeF]LVKGGSSGSSGSSGK-NH2)
75.9 nM	0.00929 nM	40.9 nM	CCCCCCCCCCCCCCCC(=O)N[C@@H](CCC(=O)NCCCC[C@H](NC(=O)CNC(=O)[C@H](CO)NC(=O)[C@H](CO)NC(=O)CNC(=O)[C@H](CO)NC(=O)[C@H](CO)NC(=O)CNC(=O)[C@H](CO)NC(=O)[C@H](CO)NC(=O)CNC(=O)CNC(=O)[C@H](CCCCN)NC(=O)[C@@H](NC(=O)[C@H](CC(C)C)NC(=O)[C@](C)(Cc1ccccc1)NC(=O)[C@H](C)NC(=O)[C@@H](NC(=O)[C@](C)(Cc1ccccc1)NC(=O)[C@H](CCC(=O)O)NC(=O)[C@H](CCCCN)NC(=O)[C@H](C)NC(=O)[C@H](C)NC(=O)[C@H](CCC(N)=O)NC(=O)CNC(=O)[C@H](CCC(=O)O)NC(=O)[C@H](CC(C)C)NC(=O)[C@](C)(Cc1ccccc1)NC(=O)[C@H](CO)NC(=O)[C@H](CO)NC(=O)[C@@H](NC(=O)[C@H](CC(=O)O)NC(=O)[C@H](CO)NC(=O)[C@@H](NC(=O)[C@](C)(Cc1ccccc1)NC(=O)[C@H](CO)NC(=O)CNC(=O)[C@H](CCC(=O)O)NC(=O)C(C)(C)NC(=O)[C@@H](N)Cc1c[nH]cn1)[C@@H](C)O)C(C)C)[C@@H](C)CC)C(C)C)C(N)=O)C(=O)O [SEQ ID NO: 49, H-(Aib)^2-EG-(S)^5-(α-MeF)^6-TSDV^10 SS-(α-MeF)^13-LE^15 GQAAK^20 E-(α-MeF)^22-IA-(α-MeF)^25 LVKG-(G)^30-(SSG)3-K(Ε-γ-E-Palm)] (H-H[Aib]EGS[αMeF]TSDVSS[αMeF]LEGQAAKE[αMeF]IA[αMeF]LVKGGSSGSSGSSGK([γGlu-Palmitoyl])-NH2)
19.9 nM	0.0271 nM	139 nM	CC[C@H](C)[C@H](NC(=O)[C@](C)(Cc1ccccc1)NC(=O)[C@H](CCC(=O)O)NC(=O)[C@](C)(CCCCN)NC(=O)[C@H](C)NC(=O)[C@H](C)NC(=O)[C@H](CCC(N)=O)NC(=O)CNC(=O)[C@H](CCC(=O)O)NC(=O)[C@H](CC(C)C)NC(=O)[C@](C)(Cc1ccc(O)cc1)NC(=O)[C@H](CO)NC(=O)[C@H](CO)NC(=O)[C@@H](NC(=O)[C@H](CC(=O)O)NC(=O)[C@H](CO)NC(=O)[C@@H](NC(=O)[C@](C)(Cc1ccccc1)NC(=O)[C@H](CO)NC(=O)CNC(=O)[C@H](CCC(=O)O)NC(=O)C(C)(C)NC(=O)[C@@H](N)Cc1c[nH]cn1)[C@@H](C)O)C(C)C)C(=O)N[C@@H](C)C(=O)N[C@@](C)(Cc1c[nH]c2ccccc12)C(=O)N[C@@H](CC(C)C)C(=O)N[C@H](C(=O)N[C@@](C)(CCCCN)C(=O)NCC(=O)N[C@@](C)(CCCNC(=N)N)C(N)=O)C(C)C [SEQ ID NO: 57, H-(Aib)^2-EG-(S)^5-(α-MeF)^6-TSDV^10 SS-(α-MeY)^13-LE^15 GQAA-(α-MeK)^20 E-(α-MeF)^22-IA-(α-MeW)^25 LV-(α-MeK)^28-G-(α-MeR)^30]
105 nM	0.0848 nM	105 nM	CCCCCCCCCCCCCCCC(=O)N[C@@H](CCC(=O)NCCCC[C@H](NC(=O)[C@](C)(CCCNC(=N)N)NC(=O)CNC(=O)[C@](C)(CCCCN)NC(=O)[C@@H](NC(=O)[C@H](CC(C)C)NC(=O)[C@](C)(Cc1c[nH]c2ccccc12)NC(=O)[C@H](C)NC(=O)[C@@H](NC(=O)[C@](C)(Cc1ccccc1)NC(=O)[C@H](CCC(=O)O)NC(=O)[C@](C)(CCCCN)NC(=O)[C@H](C)NC(=O)[C@H](C)NC(=O)[C@H](CCC(N)=O)NC(=O)CNC(=O)[C@H](CCC(=O)O)NC(=O)[C@H](CC(C)C)NC(=O)[C@](C)(Cc1ccc(O)cc1)NC(=O)[C@H](CO)NC(=O)[C@H](CO)NC(=O)[C@@H](NC(=O)[C@H](CC(=O)O)NC(=O)[C@H](CO)NC(=O)[C@@H](NC(=O)[C@](C)(Cc1ccccc1)NC(=O)[C@H](CO)NC(=O)CNC(=O)[C@H](CCC(=O)O)NC(=O)C(C)(C)NC(=O)[C@@H](N)Cc1c[nH]cn1)[C@@H](C)O)C(C)C)[C@@H](C)CC)C(C)C)C(N)=O)C(=O)O [SEQ ID NO: 58, H-(Aib)^2-EG-(S)^5-(α-MeF)^6-TSDV^10 SS-(α-MeY)^13-LE^15 GQAA-(α-MeK)^20 E-(α-MeF)^22-IA-(α-MeW)^25 LV-(α-MeK)^28-G-(α-MeR)^30-K(Ε-γ-E-Palm)]
98.9 nM	98.9 nM	98.9 nM	CC[C@H](C)[C@H](NC(=O)[C@@H](NC(=O)[C@H](CCC(=O)O)NC(=O)[C@H](CCCCN)NC(=O)[C@H](C)NC(=O)[C@H](C)NC(=O)[C@H](CCC(N)=O)NC(=O)CNC(=O)[C@H](CCC(=O)O)NC(=O)[C@H](CC(C)C)NC(=O)[C@@H](NC(=O)[C@H](CO)NC(=O)[C@H](CO)NC(=O)[C@@H](NC(=O)[C@H](CC(=O)O)NC(=O)[C@H](CO)NC(=O)[C@@H](NC(=O)[C@@H](NC(=O)[C@@H](NC(=O)CNC(=O)[C@H](CCC(=O)O)NC(=O)C(C)(C)NC(=O)[C@@H](N)Cc1c[nH]cn1)[C@@H](C)O)C(C)(C)c1ccccc1)[C@@H](C)O)C(C)C)C(C)(C)c1ccccc1)C(C)(C)c1ccccc1)C(=O)N[C@@H](C)C(=O)N[C@H](C(=O)N[C@@H](CC(C)C)C(=O)N[C@H](C(=O)N[C@@H](CCCCN)C(=O)NCC(=O)N[C@@H](CCCNC(=N)N)C(N)=O)C(C)C)C(C)(C)c1ccccc1 [SEQ ID NO: 62, H-(Aib)^2-EGT^5-(β, β-di-Me-Phe)^6-TSDV^10 SS-(β, β-di-Me-Phe)^13-LE^15 GQAAK^20 E-(β, β-di-Me-Phe)^22-IA-(β,β-di-Me-Phe)^25 LVKGR^30] (H-H[Aib]EGT[X1]TSDVSS[X1]LEGQAAKE[X1]IA[X1]LVKGR-NH2)
